Measurements: patent EP0959987B1, “USE OF PERFLUOROALKYL SUBSTITUTED PHOSPHORUS COMPOUNDS AS LIGANDS FOR HOMOGENEOUS CATALYSIS IN SUPERCRITICAL CARBON DIOXIDE” (Studiengesellschaft Kohle mbH, priority 1997, dated 1998)

Columns and labels:
[1] = scCO2, T = 50 °C, p = 345 bar; cited from earlier work
[2] = Solubility of the complexes in scCO2 by UV spectroscopy (Lambert-Beer law, reference data for THF solutions); format: physicochemical
Method: Die Löslichkeit der Komplexe IXa,b in scCO2 wurde mittels UV-Spektroskopie bestimmt und mit der Löslichkeit der unsubstituierten Stammverbindung [(dppe)Rh(hfacac)] IXe verglichen. IXe ist selbst bei hoher Dichte ρ und damit hoher Lösungskraft des scCO2 (Angew. Chem. 1978, 90, 748) nicht löslich (T = 50 °C, […]). Mit IXa und IXb werden hingegen bereits bei niedrigen Dichten (T= 50 °C, ρ = 90 bar, ρ = 0.55 g cm^-3) gelb-orange Lösungen erhalten. Aus den Absorptionsmaxima der UV-Spektren (siehe Abb. 1) läßt sich über das Lambert-Beer'sche-Gesetz mittels Vergleichsdaten für THF-Lösungen eine Sättigungskonzentration von 6.3 x 10^-5 M für IXa und 7.5 x 10^-5 M für IXb ermitteln. Zum Vergleich ist in Abb. 1 auch das UV-Spektrum des Komplexes IXf mit der Alkylphosphorverbindung 1,2-Bis(dicyclohexylphosphino)ethan (dcpe) aufgeführt. Die Löslichkeit von IXf in scCO2 beträgt unter identischen Bedingungen 1.1 x 10^-5 M, ist also um 5x bzw. 7x geringer als die von IXa und IXb. [formula]

| Molecule | maximale Löslichkeit [1] [µM] | Löslichkeit in scCO2 [2] |
| --- | --- | --- |
| [(Duphos)Rh(η^4-C8H12)]^+ | 30 |  |
| O=C([CH-]C(=O)C(F)(F)F)C(F)(F)F.[Rh+].c1ccc(P(CCP(c2ccccc2)c2ccccc2)c2ccccc2)cc1 [IXe, [(dppe)Rh(hfacac)], reference compound] |  | nicht löslich |
